Source: publication PMC5578999, “Novel quinolone chalcones targeting colchicine-binding pocket kill multidrug-resistant cancer cells by inhibiting tubulin activity and MRP1 function” (Scientific Reports, 2017)

Tests used:
purified porcine tubulin [1] = molecular target: T1, purified porcine tubulin (Sus scrofa, UniProt P02554); assay: In vitro microtubule assembly (light scattering) assay; format: biochemical; conditions: 3 µmol/L CTR-17, 1 µmol/L CTR-20; 340 nm, one hour, 37 °C
T1 construct: purified porcine tubulin (T240, Cytoskeleton); purchased Cytoskeleton T240
T1 sequence (P02554 whole entry): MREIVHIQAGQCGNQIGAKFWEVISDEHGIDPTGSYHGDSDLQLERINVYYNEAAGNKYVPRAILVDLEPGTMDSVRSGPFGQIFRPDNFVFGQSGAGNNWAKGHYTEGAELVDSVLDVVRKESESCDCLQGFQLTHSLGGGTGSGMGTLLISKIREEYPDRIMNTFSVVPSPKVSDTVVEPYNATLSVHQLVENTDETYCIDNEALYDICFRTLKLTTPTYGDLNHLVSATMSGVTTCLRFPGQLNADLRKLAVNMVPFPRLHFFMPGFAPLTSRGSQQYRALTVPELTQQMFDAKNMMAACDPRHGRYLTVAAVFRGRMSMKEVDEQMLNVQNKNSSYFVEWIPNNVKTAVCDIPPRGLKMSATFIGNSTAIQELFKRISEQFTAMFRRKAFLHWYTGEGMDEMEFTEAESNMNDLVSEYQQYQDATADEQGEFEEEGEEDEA
T1 sequence (P02550 whole entry partner): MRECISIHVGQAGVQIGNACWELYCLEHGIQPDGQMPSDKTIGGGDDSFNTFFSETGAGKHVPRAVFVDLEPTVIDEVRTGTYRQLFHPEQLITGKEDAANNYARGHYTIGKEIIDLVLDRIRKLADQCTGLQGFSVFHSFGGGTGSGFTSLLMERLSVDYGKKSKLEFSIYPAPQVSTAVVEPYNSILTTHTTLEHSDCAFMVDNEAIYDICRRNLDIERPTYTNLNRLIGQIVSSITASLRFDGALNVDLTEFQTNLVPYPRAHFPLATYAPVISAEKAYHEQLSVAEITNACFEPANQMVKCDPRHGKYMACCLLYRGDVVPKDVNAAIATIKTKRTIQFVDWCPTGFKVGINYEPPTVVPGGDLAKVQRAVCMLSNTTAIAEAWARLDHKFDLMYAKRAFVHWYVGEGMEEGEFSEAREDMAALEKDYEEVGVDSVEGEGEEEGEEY
Procedure: Figure 5 CTRs inhibited microtubule polymerization by binding to tubulin through the colchicine-binding pocket. (a) CTRs inhibited microtubule polymerization in a similar manner to that of nocodazole. Purified porcine tubulin and 1.0 mmol/L GTP were added to reaction mixture (37 °C) containing 10 µmol/L paclitaxel (Tax), 3 µmol/L CTR-17, 1 µmol/L CTR-20, or 5 µmol/L nocodazole (Noco). Polymerization of microtubule was monitored every minute for one hour at 340 nm by spectrophotometry. Note that G-PEM buffer contains 400 µg of purified tubulin. (b) CTR-20 (and CTR-17; Supplementary Fig. S12) bound tubulin. CTR-20 quenched the intrinsic tryptophan fluorescence of tubulin in a dose-dependent manner. The changes in fluorescence intensity (∆F) were plotted against drug concentrations to determine the dissociation constant. […] CTR-20 (and CTR-17; Supplementary Fig. S12) depressed the fluorescence of the colchicine-tubulin complex in a dose-dependent manner. The fluorescence intensity of the final tubulin complex was used to determine the inhibitory concentration (Ki) using a modified Dixon plot. The fluorescence intensity was normalized by subtracting any intrinsic fluorescence of CTR-20 at given doses from that of the complex. “F” is the fluorescence of the CTR-colchicine-tubulin complex, and “F0” is the fluorescence of the colchicine-tubulin complex. […]

KB-C-2 [2] = assay: SRB cell viability, MDR1-overexpressing cells; format: cell-based, human; conditions: KB-C-2 vs KB-C-1; Table S1
SW-1271 = assay: SRB cell viability; format: cell-based; conditions: SW1271
Procedure: (§1) Cell line authentication was carried out by Genetica DNA
(§2) Cell viability, com binational i ndex and cell synchronization
(§3) Cell viability and proliferation were ex amined using a s ulforhodamine B (SRB) assa y as […]
(§4) IC 50 values were calculat ed from si gmoidal dose-response cu rves gen erat ed b y at least two indepen dent ex periments , with each quadruplicate samples, using GraphPad Prism v.5.04 software (GraphPad Software, Inc, La J olla, CA). […]
(§5) (sham) or presence of compound(s). […]

[3] = Serum ALT and AST, ATH490 mice; conditions: 30 days, paclitaxel 10 mg/kg, CTR 30 mg/kg, combinations 5 + 15 mg/kg; for ALT: sham 64.03± 4.04; for AST: sham 112.46 ± 4.74
Procedure: For paclitaxel treatments, 40 mg/ml stock solution of paclitaxel (Sigma, MO) was prepared in DMSO. […] Alanine transaminase (ALT, SUP6001-c) and Aspartate transaminase (AST, SUP6002-c) color endpoint assay kits were purchased from ID Labs (London, Ontario, Canada).
Athymic mice engrafted with tumor cells were used to determine antitumor activity. […] When tumor size reached 5–6 mm in diameter (n = 4–5 per group), mice were randomly assigned into several groups and vehicle-treated or treated with drug(s). […] Animals were monitored for food and water consumption every day, and their body weights and tumor volumes were measured twice per week. Tumor volumes were measured with a digital caliper and were determined by the following formula: ½ length × width^2. Blood samples were collected via cardiac puncture and processed for ALT and AST measurements. The animals were then immediately euthanized by carbon dioxide.
carri ed out using GraphP ad Prism software. All values are pr esented as mean±S.E.M.
Comparison between each group was made b y p values determined using one-wa y ANOVA. The
p value of <0.05 is consi dered to be statisticall y significant. Each organ weight was norm alized
with total body mass (BM) as expressed in %.
ATH490 athymic mice were vehicle -treated (Sham) or treated with indicated compounds
and doses for 30 da ys , followed by harvesting liver ( and other o r gans ; Fi g. 7d) for an al ysis of
their toxic effects . […] ( b) Blood sera w erecollected from mice
treated with indicated compounds and doses, and then examinedthe levels of ALT and AST to
gain insight into liver toxicity.
All values ar e present ed as mean±S.E .M.

[4] = Body and organ weights, side effects; conditions: CTR-17 30 mg/kg, CTR-20 30 mg/kg, paclitaxel 10 mg/kg; CD-1 or ATH490 strains
Procedure: Athymic mice engrafted with tumor cells were used to determine antitumor activity. […] When tumor size reached 5–6 mm in diameter (n = 4–5 per group), mice were randomly assigned into several groups and vehicle-treated or treated with drug(s). […] Animals were monitored for food and water consumption every day, and their body weights and tumor volumes were measured twice per week. Tumor volumes were measured with a digital caliper and were determined by the following formula: ½ length × width^2. Blood samples were collected via cardiac puncture and processed for ALT and AST measurements. The animals were then immediately euthanized by carbon dioxide. Tumors and vital organs (spleen, kidney, liver and lung) were harvested and fixed in 10% buffered formalin at 4 °C overnight before being processed for a paraffin embedding. The paraffin-embedded blocks were then sectioned to 4–5 µm thick. Each section was stained with haematoxylin and eosin (H&E).

purified porcine tubulin [5] = molecular target: T1, purified porcine tubulin; assay: Intrinsic tryptophan fluorescence quenching of tubulin; format: binding
Procedure: A two-step extraction procedure was used to differentially extract tubulin heterodimers and microtubules from sham-treated cells or those treated with compounds as described previously. To determine the binding ability of CTR compounds to tubulin, the changes in the intrinsic tryptophan fluorescence of purified porcine tubulin (T240, Cytoskeleton) was measured as described previously. GraphPad Prism software was used to determine the dissociation constant of CTRs bound to tubulin, and the following formula was used: ∆F=∆Fmax×C/Kd+C Where, ΔF is the changes in the fluorescence intensity of the tubulin when bound by CTR; ΔFmax is the maximum change in the fluorescence intensity; C is compound concentration; and Kd is the dissociation constant of the compound. The experiment was repeated five times.

[6] = test system: non-cancerous cells (MCF 10A and 184B5); assay: SRB cell viability, cancer vs non-cancer cells; format: cell-based; conditions: cancer cells vs MCF 10A and 184B5
Procedure: and MCF10AT1 cells were cultured in Dulbecco's Modified Eagle's Medium/Ham's Nutrient Mixture F-12 (DME/F12) supplemented with 10% (volume/volume) FBS , 100 μg/ml streptom ycin and 100 units/ml penicillin, antim ycotic solution, 0.5 μg/ml hydrocortisone, 10 ng/ml human epiderm al growth factor (hEGF) and 5 μg/ml insulin, whereas MCF10CA1a cell line was cultured in DM EM supplemented with 10% FBS (volume/volume). […]
Dr. Susan Cole (Queen’s Universit y, Kingston, Ontario, Canada). The pacl itaxel-resistant MDA-MB-231TaxR cell line was generated in house b y culturing MDA-MB-231 cells (purchased from ATCC and authen ticated ) in the gradual l y incr easi ng con centr ations of pacl itax el until the concentration reached to 100 nM. Cell line authentication was carried out by Genetica DNA Laboratories (Burlington, NC) using a short tandem repeat (STR) profiling method (March 2015; […]
as §2
as §4, with “Cell viability and proliferation were ex amined using a s ulforhodamine B (SRB) assa y as described previousl y (Hu et al., 2008). IC” for “IC”

[7] = Serum ALT and AST, CD1 mice; conditions: paclitaxel 10 mg/kg, CTR 30 mg/kg, combinations paclitaxel 5 + CTR 15 mg/kg, vehicle 38.76 ± 0.17, in U/L (unit assumed)
Text: Alanine transaminase (ALT, SUP6001-c) and Aspartate transaminase (AST, SUP6002-c) color endpoint assay kits were purchased from ID Labs (London, Ontario, Canada).
Blood samples were collected via cardiac puncture and processed for ALT and AST measurements. The animals were then immediately euthanized by carbon dioxide.

KB-C-2 [8] = assay: SRB cell viability, MDR1-overexpressing cells; format: cell-based; conditions: Homo sapiens, KB-C2; KB-C-2 MDR1-overexpressing cells
Procedure: human epidermoid carcinoma cell line and KB-C2, an isogenic MDR1- overexpressing drug-resistant cell line, were kindl y provided b y Dr. Amit K Tiwari, the Universit y of Toledo, OH. […]
as §1, §2, §3, §4, §5

H69AR = assay: SRB cell viability, multidrug-resistant cells; format: cell-based; conditions: for IC50: Homo sapiens, H69AR
Procedure: as §1, §2, §3, §4, §5

Row | Structure (SMILES) | effect on microtubule polymerization (purified porcine tubulin [1]) | Resistance (fold) (KB-C-2 [2]) | IC50 (SW-1271) [nM] | ALT [3] [IU/L] | AST [3] [IU/L] | side effects (changes in body and organ weights) [4] | Kd (purified porcine tubulin [5]) [nM] | killed cancer cells more effectively than non-cancerous cells [6] | levels of ALT and AST [7] | IC50 (KB-C-2 [8]) [nM] | IC50 (H69AR) [nM] | Resistance (fold) (H69AR; H69AR vs SW-1271, Table S1)
1 | COc1ccc2[nH]c(=O)c(/C=C/C(=O)c3ccccc3OC)cc2c1 [CTR-20, (E)-6-Methoxy-3-(3-(2-methoxyphenyl)-3-oxoprop-1-enyl) quinolin-2(1H)-one] | inhibit microtubule polymerization | 2.50 | 1950 ± 10 | 50.50± 9.96 | 118.22±17.00 | did not cause any notable side effects | 5090 ± 490 | 20–26 folds | 30.43 ± 0.49 | 250 ± 30 | 130 ± 10 | –
2 | COc1ccccc1C(=O)/C=C/c1cc2ccccc2[nH]c1=O [CTR-17, (E)-3-(3-(2-Methoxyphenyl)-3-oxoprop-1-enyl)quinolin-2(1H)-one] | inhibit microtubule polymerization | 1.71 | 1140 ± 40 | 64.67± 5.26 | 114.13 ± 6.36 | did not cause any notable side effects | 4580 ± 950 | 20–26 folds | 37.02 ± 1.46 | 650 ± 160 | 520 ± 100 | 0.45
